# Laboratory results taken from patent US4049795A, “Treatment of hemorrhagic shock” (priority 1974, dated 1977).
# Assays:
# Rabbit atrium = test: Isolated rabbit atrium; settings: rabbit atrium
# Source text: The technique used for this study was the same as that described above for the ileum of the rabbit, but replacing the ileum with bled rabbit atrium. The preservation liquid used as LOCKE's liquid.
# [1] = tested on: reticulo-endothelial system; test: Phagocytic activity of the reticulo-endothelial system, carbon clearance (HALPERN); assay type: in vivo, rabbit; settings: FIGS. 3 and 4
# Source text: That technique is based on the study of the kinetics of the disappearance in the blood of particles of carbon injected into the vein. The kinetics of disappearance follow the equation [formula] in which formula C1 is the concentration of carbon in the blood at time T1 and C2 is the concentration of carbon in the blood at time T2, K being a constant. The constant K, called phagocytic index, represents the phagocytic activity of the cells of the reticule-endothelial system under the experimental conditions. For the tests, the technique and carbon suspension described by […]. Physiol. of Paris, Vol. 50, p. […] The study was done on rabbits of the same stock, male or female, or an average weight of about 2.5 kg, devided into four batches of four animals each. The first batch was used as controls and received, by slow intravenous injection, 10 ml of a 0.8% solution of sodium chloride ten minutes before the injection of 4 mg of carbon per 100 g of animal. […] In all the tests, a total volume of 10 ml was injected with a fairly closely related injection speed (less than five minutes).
# glucidic metabolism = test: Glucidic metabolism under intravenous perfusion in rabbits (lactacidemia, pyruvicemia, glycemia); assay type: in vivo, rabbit; settings: 30 and 60 minutes after perfusion
# Method: These tests were carried out on rabbits weighing an average of 2.500 kg.
# A trachetomy was carried out under local anaesthesia with procaine. […] A saphenous vein and the two femoral arteries were catheterized under local anaesthesia in order to register the blood pressure by a manometer and to take blood samples; a jugular vein was catheterized to the base of the skull to sample cerebral venous blood.
# The results obtained were compared with those obtained following a perfusion carried out in the same way with sodium d,l-lactate at a dose of 40 mg/kg/min.
# The glycemia was measured by the enzymatic method in the arterial and cerebral venus blood. The samples were taken before the perfusion, at the end of the perfusion, and at 30 minutes and 60 minutes after perfusion.
# Rabbit ileum = test: Isolated rabbit ileum, tonus; settings: without dihydroxyacetone
# Method: Fragments of the ileum were suspended in a 75 ml isolated organ tank containing Tyrode's solution maintained at 37° C. by a thermostat and oxygenated by bubbling pure oxygen at a constant rate of flow. The movement of the organ were recorded by means of a lever on a cylinder rotating at a known constant speed.
# [2] = tested on: free fatty acids in the plasma; test: Non-esterified fatty acids in the plasma (DOLE); assay type: in vivo, rabbit
# Method: Doses of 1 and 2 mg of adrenalin were introduced subcutaneously into rabbits weighing 2.5 to 3.5 kg.
# FIGS. 8, 9 and 10 show the variation in the percentage of non-esterified fatty acids in the plasma as a function of the time. […]
# hemorrhagic shock = test: Irreversible hemorrhagic shock (WIGGERS) in dogs; settings: irreversible shock
# Method: These experiments were carried out with dogs. […] Spontaneous reinjection, by progressive circulatory failure, of a quarter of the mass of blood effused during the second hemmorhage, was chosen as the irreversibility criterion. The following parameters were measured: pH, arterial and venous CO2 pressure (with a radiometertype apparatus), lactacidemia, pyruvicemia and glycemia (by the enzymatic method), and kalemia (with a flame photometer). Samples were taken from the dogs before irreversibility, immediately after, one hour 11/2 hours and 2R hours thereafter. The blood pressure was followed by femoral intubation and recorded with an apparatus providing mean arterial bloodpressure readings.
smiles,measurement,setting,value
"CC(O)C(=O)O (racemic) [sodium lactate, sodium d,l-lactate, reference compound]",action on rhythm of atrium,Rabbit atrium,accelerates the rhythm
same,rate of phagocytosis,[1],increased
same,lactacidemia at 30 and 60 minutes after the end of perfusion,glucidic metabolism,tended to return to its initial values
"[Cl-].[K+] [Potassium chloride, reference compound]","tonus of the fiber, ordinary effect",Rabbit ileum,increases the tonus of the fiber in a stable manner
CNCC(O)c1ccc(O)c(O)c1 (stereo not drawn) [adrenalin],proportion of non-esterified fatty acids one hour after injection,"[2]; 1 mg of adrenalin, FIG. 9",fell below normal
same,proportion of non-esterified fatty acids one hour after injection,"[2]; 2 mg of adrenalin, FIG. 8",again increased
same,average proportion of non-esterified fatty acids about 10 to 15 minutes after injection,"[2]; 1 or 2 mg of adrenalin, fed rabbits",increased
"O=C[C@H](O)[C@@H](O)[C@H](O)[C@H](O)CO [hypertonic glucose, glucose, reference compound]",effect on the blood pressure in hemorrhagic shock,hemorrhagic shock,no effect
same,effect on the blood pressure in hemorrhagic shock,hemorrhagic shock; listed as 30% glucose,none
